In patent US20100168125A1, “INDOLIZINES AND AZA-ANALOG DERIVATIVES THEREOF AS CNS ACTIVE COMPOUNDS” (priority 2007, published 2010):

Legend:
human D3 receptor [1] = target: T1, human D3 receptor (Homo sapiens, UniProt P35462); conditions: published derivatives with carboxamide alkylene spacer; cited from earlier work
T1 construct: expressed in transfected cells; host or cells: Chinese hamster ovary (CHO) cells, membranes

human D2short receptor = target: T2, human D2short receptor (Homo sapiens, UniProt P14416); conditions: published derivatives with carboxamide alkylene spacer; read-out: Ki D2sh; cited from earlier work
T2 construct: expressed in transfected cells; host or cells: Chinese hamster ovary (CHO) cells, membranes

human D4.4 receptor = target: T3, human D4.4 receptor (Homo sapiens, UniProt P21917); conditions: published derivatives with carboxamide alkylene spacer; cited from earlier work
T3 construct: expressed in transfected cells; host or cells: Chinese hamster ovary (CHO) cells, membranes
T3 sequence (P21917 1-419): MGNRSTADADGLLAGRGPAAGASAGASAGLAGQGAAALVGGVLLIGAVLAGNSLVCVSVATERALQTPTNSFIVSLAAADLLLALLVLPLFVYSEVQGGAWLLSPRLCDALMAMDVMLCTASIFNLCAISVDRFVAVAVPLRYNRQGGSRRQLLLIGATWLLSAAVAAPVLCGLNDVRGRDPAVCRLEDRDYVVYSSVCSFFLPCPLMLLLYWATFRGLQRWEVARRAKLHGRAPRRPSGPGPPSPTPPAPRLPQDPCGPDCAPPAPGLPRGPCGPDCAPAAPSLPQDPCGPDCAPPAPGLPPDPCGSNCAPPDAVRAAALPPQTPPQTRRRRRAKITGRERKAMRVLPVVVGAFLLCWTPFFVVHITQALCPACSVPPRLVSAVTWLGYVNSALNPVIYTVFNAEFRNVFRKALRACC

human D3 receptor [2] = target: T1, human D3 receptor; test: radioligand binding with [^3H]spiperone, D3; conditions: ratio of Ki values
In short: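 Membranes from CHO cell lines expressing each human receptor subtype incubated with [^3H]spiperone. Test compounds spanned subnanomolar to micromolar concentrations in competition format.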

5-HT1A receptor = target: T4, 5-HT1A receptor (Sus scrofa, UniProt A0A4X1UTF5); conditions: published derivatives with carboxamide alkylene spacer; cited from earlier work
T4 construct: membrane preparations from porcine cortical material; from tissue; host or cells: porcine cerebral cortex membranes
T4 sequence (A0A4X1UTF5 1-422): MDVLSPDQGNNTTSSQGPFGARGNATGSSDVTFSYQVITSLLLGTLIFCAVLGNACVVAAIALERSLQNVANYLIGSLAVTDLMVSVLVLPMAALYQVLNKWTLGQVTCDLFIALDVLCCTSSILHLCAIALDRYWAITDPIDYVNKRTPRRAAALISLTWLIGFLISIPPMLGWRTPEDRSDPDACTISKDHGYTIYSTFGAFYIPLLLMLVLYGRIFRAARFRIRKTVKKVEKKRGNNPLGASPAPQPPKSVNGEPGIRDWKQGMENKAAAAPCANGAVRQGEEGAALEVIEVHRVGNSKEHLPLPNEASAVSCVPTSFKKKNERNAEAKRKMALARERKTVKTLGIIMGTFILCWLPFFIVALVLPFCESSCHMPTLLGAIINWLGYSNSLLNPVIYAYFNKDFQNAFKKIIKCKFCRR

human D2long receptor = target: T5, human D2long receptor (Homo sapiens, UniProt P14416); conditions: published derivatives with carboxamide alkylene spacer; read-out: Ki D2lo; cited from earlier work
T5 construct: expressed in transfected cells; host or cells: Chinese hamster ovary (CHO) cells, membranes

5-HT2 receptor = target: T6, 5-HT2 receptor (Sus scrofa, UniProt P50129); conditions: published derivatives with carboxamide alkylene spacer; cited from earlier work
T6 construct: membrane preparations from porcine cortical material; from tissue; host or cells: porcine cerebral cortex membranes
T6 sequence (P50129 whole entry): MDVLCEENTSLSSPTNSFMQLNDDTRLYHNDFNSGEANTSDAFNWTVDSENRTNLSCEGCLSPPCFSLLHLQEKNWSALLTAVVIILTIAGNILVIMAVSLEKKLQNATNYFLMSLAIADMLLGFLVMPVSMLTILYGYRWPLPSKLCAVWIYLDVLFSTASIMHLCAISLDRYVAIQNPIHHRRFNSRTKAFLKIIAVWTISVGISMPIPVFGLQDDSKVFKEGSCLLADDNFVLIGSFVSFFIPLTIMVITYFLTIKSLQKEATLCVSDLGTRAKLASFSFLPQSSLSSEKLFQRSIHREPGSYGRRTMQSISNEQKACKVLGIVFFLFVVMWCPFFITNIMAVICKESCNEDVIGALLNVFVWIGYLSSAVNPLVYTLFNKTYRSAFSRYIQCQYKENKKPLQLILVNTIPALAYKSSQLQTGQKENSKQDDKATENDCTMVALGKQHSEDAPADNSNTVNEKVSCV

T2 sequence (P14416 1-414 isoform P14416-2): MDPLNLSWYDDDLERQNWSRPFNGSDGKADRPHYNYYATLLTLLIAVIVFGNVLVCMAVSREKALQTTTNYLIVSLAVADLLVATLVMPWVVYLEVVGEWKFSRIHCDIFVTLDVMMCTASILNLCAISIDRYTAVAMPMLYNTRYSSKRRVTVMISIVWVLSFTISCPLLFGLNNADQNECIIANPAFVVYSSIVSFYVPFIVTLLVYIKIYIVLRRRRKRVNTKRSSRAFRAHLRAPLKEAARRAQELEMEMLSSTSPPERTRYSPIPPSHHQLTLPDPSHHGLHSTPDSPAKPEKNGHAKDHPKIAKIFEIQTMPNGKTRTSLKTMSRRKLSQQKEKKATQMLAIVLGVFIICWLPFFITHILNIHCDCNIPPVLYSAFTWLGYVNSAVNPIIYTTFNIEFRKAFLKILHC
T5 sequence (P14416 whole entry): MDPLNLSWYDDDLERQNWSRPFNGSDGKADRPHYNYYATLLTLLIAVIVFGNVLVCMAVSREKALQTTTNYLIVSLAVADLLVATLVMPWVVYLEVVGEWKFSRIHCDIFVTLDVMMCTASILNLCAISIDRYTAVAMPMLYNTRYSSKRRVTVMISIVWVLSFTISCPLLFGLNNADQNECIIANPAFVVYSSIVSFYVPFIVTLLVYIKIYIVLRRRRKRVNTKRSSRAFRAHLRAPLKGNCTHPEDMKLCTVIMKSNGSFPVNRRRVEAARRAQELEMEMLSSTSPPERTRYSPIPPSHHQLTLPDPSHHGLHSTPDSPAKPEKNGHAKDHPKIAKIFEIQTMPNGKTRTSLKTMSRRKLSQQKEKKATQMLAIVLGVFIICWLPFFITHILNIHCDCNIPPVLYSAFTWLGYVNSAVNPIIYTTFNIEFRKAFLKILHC
T1 sequence (P35462 whole entry): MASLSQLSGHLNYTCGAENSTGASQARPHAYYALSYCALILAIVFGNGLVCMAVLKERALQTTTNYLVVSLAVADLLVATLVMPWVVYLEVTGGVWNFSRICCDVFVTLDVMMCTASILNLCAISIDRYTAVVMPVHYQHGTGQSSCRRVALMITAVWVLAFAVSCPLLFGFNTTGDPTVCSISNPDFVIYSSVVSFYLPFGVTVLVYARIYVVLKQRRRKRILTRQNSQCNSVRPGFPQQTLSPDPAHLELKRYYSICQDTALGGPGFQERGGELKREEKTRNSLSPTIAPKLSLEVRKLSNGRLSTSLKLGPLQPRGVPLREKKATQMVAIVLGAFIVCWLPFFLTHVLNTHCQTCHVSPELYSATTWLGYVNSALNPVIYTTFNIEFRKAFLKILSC

| SMILES | ratio D2lo/D3 (human D3 receptor [2]) | Ki (human D3 receptor [1]) [nM] | Ki (human D2short receptor) [nM] | Ki (human D4.4 receptor) [nM] | Ki (5-HT1A receptor) [nM] | Ki (human D2long receptor) [nM] | Ki (5-HT2 receptor) [nM] |
| --- | --- | --- | --- | --- | --- | --- | --- |
| COc1ccccc1N1CCN(CCCCNC(=O)c2ccn3ncc(Cl)c3c2)CC1 [Example B29] | 16 | 14 | 96 | 77 | 13 | 220 | 420 |
| O=C(NCCCCN1CCN(c2cccc(Cl)c2Cl)CC1)c1ccn2nccc2c1 [Example B26] | 340 | 0.25 | 51 | 210 | 28 | 86 | 44 |
| COc1ccccc1N1CCN(CCCCNC(=O)c2cc3ccccn3n2)CC1 [comp 1c] | – | 4.3 | 310 | 130 | 24 | 310 | – |

Now from value to compound, other results behind:

| ratio D2lo/D3 (human D3 receptor [2]) | SMILES | Ki (human D3 receptor [1]) [nM] | Ki (human D2short receptor) [nM] | Ki (human D4.4 receptor) [nM] | Ki (5-HT1A receptor) [nM] | Ki (human D2long receptor) [nM] | Ki (5-HT2 receptor) [nM] |
| --- | --- | --- | --- | --- | --- | --- | --- |
| 15 | COc1ccccc1N1CCN(CCCCNC(=O)c2ccn3ncc(Br)c3c2)CC1 [Example B28] | 12 | 89 | 59 | 6.4 | 180 | 240 |
| 11 | COc1ccccc1N1CCN(CCCCNC(=O)c2ccc3nccn3c2)CC1 [Example B93] | 7.8 | 30 | 140 | 12 | 82 | 950 |
| 180 | O=C(NCCCCN1CCN(c2cccc(Cl)c2Cl)CC1)c1cc2ccccn2n1 [Example B8] | 0.36 | 44 | 380 | 53 | 66 | 82 |
